Assay results taken from US7985745B2, “Method for pain treatment” (Abbott Laboratories, priority 2006, dated 2011).

Test system: osteoarthritis pain
Experiment: MIA-induced knee joint osteoarthritis model, hind limb grip force
Format: in vivo, rat
Details: grip force 20 days after MIA, % return to normalcy vs naïve group
Description: Unilateral knee joint osteoarthritis was induced in rats by a single intra-articular (i.a.) injection of sodium monoiodoacetate (MIA) (Sigma-Aldrich, St. Louis, Mo.) (3 mg in 50 ul sterile isotonic saline) into the right knee joint cavity under light (1-3%) isoflurane anesthesia.
Pain behavior was assessed by measurement of hind limb grip force (GF) in adult osteoarthritic rats. Following the unilateral injection of MIA (male Sprague Dawley, 325-350 g, tested at 20 days following MIA injection), a behavioral measure of activity-induced pain was carried out. Measurements of the peak hind limb grip force were conducted by recording the maximum compressive force (CFmax), in grams of force, exerted on a hind limb strain gauge setup, in a commercially available grip force measurement system (Columbus Instruments, Columbus, Ohio).
During testing, each rat was gently restrained by grasping it around its rib cage and then allowed to grasp the wire mesh frame attached to the strain gauge. The experimenter then moved the animal in a rostral-to-caudal direction until the grip was broken. Each rat was sequentially tested twice at approximately 2-3 min interval to obtain a raw mean grip force (CFmax). This raw mean grip force data was in turn converted to a maximum hindlimb cumulative compressive force (CFmax), as the grams of force/kg of body weight, for each animal.
For evaluating the compound effects, the hind limb grip force was conducted 20 days following the intra-articular injection of MIA. A group of age-matched naïve (not injected with MIA) animals was added as a comparator to the drug-dosed groups. The vehicle control response for each group of MIA-treated animals was defined as the 0% response (0% effect), whereas the naïve control group was defined as the normal response and as 100% effect. The % effects for each dose group was expressed as % return of response to normalcy, compared to the naïve group. That is, the % effect=(Treatment CFmax−Vehicle CFmax)/[…]]×100). All experiments evaluating drug effects in this model were conducted in a randomized blinded fashion.

Question: Which results are given for `CN1CCN(C(=O)c2cc3cc(Cl)ccc3[nH]2)CC1` [Example 3, reference compound]?
Answer: % Effect (100 micromole/kg i.p.): 21%; % Effect (250 micromole/kg i.p.): 47%
